Patent US9029378B2, “Substituted bicyclic aromatic carboxamide and urea compounds as vanilloid receptor ligands” (Gruenenthal GmbH, priority 2011, dated 2015)

target: T1, vanilloid receptor 1 (VR1/TRPV1 receptor) (Homo sapiens, UniProt Q8NER1); assay: Functional testing on the vanilloid receptor 1 (FLIPR Ca2+ influx assay, capsaicin); type: cell-based, human being; design: key to (f) (human being) Cap: effect in words (agonist / no effect): AG=agonist; NE=no effect; details: @0.1 μM; Cap=capsaicin; read-out: inhibition (as a percentage), (f) (human being) Cap
T1 construct: expressed in transfected cells; host or cells: CHO K1
T1 sequence (Q8NER1 whole entry): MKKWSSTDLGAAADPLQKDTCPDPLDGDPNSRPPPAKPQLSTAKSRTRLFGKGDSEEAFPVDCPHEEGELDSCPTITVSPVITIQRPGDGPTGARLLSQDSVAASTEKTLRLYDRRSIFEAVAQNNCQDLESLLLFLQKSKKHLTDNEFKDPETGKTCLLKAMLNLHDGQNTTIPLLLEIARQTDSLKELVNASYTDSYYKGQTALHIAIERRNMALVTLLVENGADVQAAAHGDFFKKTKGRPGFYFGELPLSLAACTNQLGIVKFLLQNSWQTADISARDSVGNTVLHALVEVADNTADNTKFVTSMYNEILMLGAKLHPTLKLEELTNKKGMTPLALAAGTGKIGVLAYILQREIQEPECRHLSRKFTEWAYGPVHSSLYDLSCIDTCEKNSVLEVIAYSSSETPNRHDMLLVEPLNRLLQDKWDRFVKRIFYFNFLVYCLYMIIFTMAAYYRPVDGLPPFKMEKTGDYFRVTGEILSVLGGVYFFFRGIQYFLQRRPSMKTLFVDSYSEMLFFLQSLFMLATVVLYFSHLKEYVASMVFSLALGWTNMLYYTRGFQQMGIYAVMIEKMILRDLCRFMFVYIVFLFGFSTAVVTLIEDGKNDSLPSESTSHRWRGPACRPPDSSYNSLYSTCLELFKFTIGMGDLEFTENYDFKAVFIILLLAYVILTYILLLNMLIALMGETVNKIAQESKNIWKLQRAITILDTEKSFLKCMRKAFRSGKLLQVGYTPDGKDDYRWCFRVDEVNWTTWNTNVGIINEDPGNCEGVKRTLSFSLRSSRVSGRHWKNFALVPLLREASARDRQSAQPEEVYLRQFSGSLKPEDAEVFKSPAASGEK
Procedure: Furthermore, preference may be given to compounds according to the invention that cause a 50 percent displacement of capsaicin, which is present at a concentration of 100 nM, in a FLIPR assay with CHO K1 cells which were transfected with the human VR1 gene at a concentration of less than 2,000 nM, preferably less than 1,000 nM, particularly preferably less than 300 nM, most particularly preferably less than 100 nM, even more preferably less than 75 nM, additionally preferably less than 50 nM, most preferably less than 10 nM.
In the process, the Ca^2+ influx is quantified in the FLIPR assay with the aid of a Ca^2+-sensitive dye (type Fluo-4, Molecular Probes Europe BV, Leiden, the Netherlands) in a fluorescent imaging plate reader (FLIPR, Molecular Devices, Sunnyvale, USA), as described hereinafter.
Pharmacological Methods I. Functional Testing Carried Out on the Vanilloid Receptor 1 (VR1/TRPV1 Receptor) […]
The number of cells in the suspension is set to 3×10^5 per mL and 150 μL of this suspension are in each case introduced into a recess in the cell culture plates coated as described hereinbefore. In the incubator the plates are left for two to three days at 37° C., 5% by volume of CO2 and 95% relative humidity. Subsequently, the cells are loaded with 2 μM of Fluo-4 and 0.01% by volume of Pluronic F127 (Molecular Probes Europe BV, Leiden, the Netherlands) in HBSS buffer (Hank's buffered saline solution, Gibco Invitrogen GmbH, Karlsruhe, Germany) for 30 min at 37° C., washed 3 times with HBSS buffer and after further incubation for 15 minutes at room temperature used for Ca^2+ measurement in a FLIPR assay. The Ca^2+-dependent fluorescence is in this case measured before and after the addition of substances (λex=488 nm, λem=540 nm). Quantification is carried out by measuring the highest fluorescence intensity (FC, fluorescence counts) over time.
The FLIPR protocol consists of 2 substance additions. First the compounds to be tested (10 μM) are pipetted onto the cells and the Ca^2+ influx is compared with the control (capsaicin 10 μM). This provides the result in % activation based on the Ca^2+ signal after the addition of 10 μM of capsaicin (CP). After 5 minutes' incubation, 100 nM of capsaicin are applied and the Ca^2+ influx is also determined.
Desensitising agonists and antagonists lead to suppression of the Ca^2+ influx. The % inhibition is calculated compared to the maximum achievable inhibition with 10 μM of capsazepine. Triple analyses (n=3) are carried out and repeated in at least 3 independent experiments (N=4). Starting from the percentage displacement caused by different concentrations of the compounds to be tested of general formula I, IC50 inhibitory concentrations which cause a 50-percent displacement of capsaicin were calculated. Ki values for the test substances were obtained by conversion by means of the Cheng-Prusoff equation (Cheng, Prusoff; Biochem. Pharmacol. 22, 3099-3108, 1973).
The affinity of the compounds of to the invention for the vanilloid receptor 1 (VR1/TRPV1 receptor) was determined as described hereinbefore (pharmacological method I). The compounds of the invention display outstanding affinity to the VR1/TRPV1 receptor (Table 2). In Table 2 the abbreviations below have the following meanings: • Cap=capsaicin • AG=agonist • NE=no effect
The value after the “@” symbol indicates the concentration at which the inhibition (as a percentage) was respectively determined.

SMILES | inhibition at 0.1 µM [%]
CC1CCN(c2nc(C(F)(F)F)ccc2CNC(=O)Nc2cccc3cc[nH]c23)CC1 [Example 36, 1-(1H-Indol-7-yl)-3-((2-(4-methylpiperidin-1-yl)-6-(trifluoromethyl)pyridin-3-yl)methyl)urea] | 37

same assay, conditions: @5 μM; Cap=capsaicin; read-out: inhibition (as a percentage), (f) (human being) Cap

SMILES | inhibition at 5 µM [%]
Cc1cc(NC(=O)NCc2ccc(C(F)(F)F)nc2N2CCC(C)CC2)c2cn[nH]c2c1 [Example 56, 1-(6-Methyl-1H-indazol-4-yl)-3-((2-(4-methylpiperidin-1-yl)-6-(trifluoromethyl)pyridin-3-yl)methyl)urea] | 45
Cc1ccc2cccc(NC(=O)NCc3ccc(C(C)(C)C)cc3N3CCC(C)CC3)c2n1 [Example 74, 1-(4-Tert-butyl-2-(4-methylpiperidin-1-yl)benzyl)-3-(2-methylquinolin-8-yl)urea] | 24
CC1CCN(c2nc(C(F)(F)F)ccc2CNC(=O)Nc2cc3ccccc3cn2)CC1 [Example 21, 1-(Isoquinolin-3-yl)-3-((2-(4-methylpiperidin-1-yl)-6-(trifluoromethyl)pyridin-3-yl)methyl)urea] | 39

same assay, conditions: Cap=capsaicin

SMILES | (f) (human being) Cap: effect in words (agonist / no effect)
CC(=O)Nc1nc2cc(NC(=O)NCc3ccc(C(F)(F)F)nc3N3CCC(C)CC3)ccc2s1 [Example 31, N-(5-(3-((2-(4-methylpiperidin-1-yl)-6-(trifluoromethyl)pyridin-3-yl)methyl)ureido)benzo[d]thiazol-2-yl)acetamide] | AG
CC1CCN(c2nc(C(F)(F)F)ccc2CNC(=O)Nc2ccc3ncn(C)c3c2)CC1 [Example 26, 1-(1-Methyl-1H-benzo[d]imidazol-6-yl)-3-((2-(4-methylpiperidin-1-yl)-6-(trifluoromethyl)pyridin-3-yl)methyl)urea] | AG

same assay, conditions: Cap=capsaicin (100 nM); Ki from IC50 by Cheng-Prusoff equation; read-out: (f) Ki (human being) [nM] Cap

SMILES | Ki [nM]
Cc1cc2cc(NC(=O)NCc3ccc(C(F)(F)F)nc3N3CCC(C)CC3)ccc2[nH]1 [Example 24, 1-(2-Methyl-1H-indol-5-yl)-3-((2-(4-methylpiperidin-1-yl)-6-(trifluoromethyl)pyridin-3-yl)methyl)urea] | 26
CCCCOc1nc(C(F)(F)F)ccc1CNC(=O)Nc1cccc2c1cnn2C [Example 47, 1-((2-Butoxy-6-(trifluoromethyl)pyridin-3-yl)methyl)-3-(1-methyl-1H-indazol-4-yl)urea] | 3
CC(C(=O)NCc1ccc(C(F)(F)F)nc1SC1CCCCC1)c1cnc2ccccc2c1 (stereo not shown) [Example 15, N-((2-(Cyclohexylthio)-6-(trifluoromethyl)pyridin-3-yl)methyl)-2-(quinolin-3-yl)propanamide] | 50
CC1CCN(c2nc(C(F)(F)F)ccc2CNC(=O)Nc2cnc3ccccc3c2)CC1 [Example 12, 1-((2-(4-Methylpiperidin-1-yl)-6-(trifluoromethyl)pyridin-3-yl)methyl)-3-(quinolin-3-yl)urea] | 9
CC1CCN(c2nc(C(F)(F)F)ccc2CNC(=O)Nc2ccc3ncsc3c2)CC1 [Example 32, 1-(Benzo[d]thiazol-6-yl)-3-((2-(4-methylpiperidin-1-yl)-6-(trifluoromethyl)pyridin-3-yl)methyl)urea] | 4
CC(=O)n1ccc2c(NC(=O)NCc3ccc(C(F)(F)F)nc3N3CCC(C)CC3)cccc21 [Example 41, 1-(1-Acetyl-1H-indol-4-yl)-3-((2-(4-methylpiperidin-1-yl)-6-(trifluoromethyl)pyridin-3-yl)methyl)urea] | 8
CCCCOc1nc(C(F)(F)F)ccc1CNC(=O)Nc1cccc2ncccc12 [Example 67, 1-((2-Butoxy-6-(trifluoromethyl)pyridin-3-yl)methyl)-3-(quinolin-5-yl)urea] | 2
CC1CCN(c2nc(C(F)(F)F)ccc2CNC(=O)Nc2ccc3cnn(C)c3c2)CC1 [Example 27, 1-(1-Methyl-1H-indazol-6-yl)-3-((2-(4-methylpiperidin-1-yl)-6-(trifluoromethyl)pyridin-3-yl)methyl)urea] | 7
CC1CCN(c2nc(C(F)(F)F)ccc2CNC(=O)Nc2ccc3scnc3c2)CC1 [Example 29, 1-(Benzo[d]thiazol-5-yl)-3-((2-(4-methylpiperidin-1-yl)-6-(trifluoromethyl)pyridin-3-yl)methyl)urea] | 5

More lines, now with the values ahead:

Ki [nM] | SMILES
8 | CC1CCN(c2nc(C(F)(F)F)ccc2CNC(=O)Nc2ccc3ccncc3c2)CC1 [Example 84, 1-(Isoquinolin-7-yl)-3-((2-(4-methylpiperidin-1-yl)-6-(trifluoromethyl)pyridin-3-yl)methyl)urea]
1 | CC1CCN(c2cc(C(F)(F)F)ccc2CNC(=O)Nc2cc(F)cc3[nH]ncc23)CC1 [Example 53, 1-(6-Fluoro-1H-indazol-4-yl)-3-(2-(4-methylpiperidin-1-yl)-4-(trifluoromethyl)benzyl)urea]
4 | CC1CCN(c2nc(C(F)(F)F)ccc2CNC(=O)Nc2cc(Cl)cc3[nH]ncc23)CC1 [Example 55, 1-(6-Chloro-1H-indazol-4-yl)-3-((2-(4-methylpiperidin-1-yl)-6-(trifluoromethyl)pyridin-3-yl)methyl)urea]
2 | CC1CCN(c2nc(C(C)(C)C)ccc2CNC(=O)Nc2cc(F)cc3[nH]ncc23)CC1 [Example 52, 1-((6-Tert-butyl-2-(4-methylpiperidin-1-yl)pyridin-3-yl)methyl)-3-(6-fluoro-1H-indazol-4-yl)urea]
3 | CC1CCN(c2nc(C(F)(F)F)ccc2CNC(=O)Nc2cccc3[nH]cnc23)CC1 [Example 58, 1-(1H-Benzo[d]imidazol-4-yl)-3-((2-(4-methylpiperidin-1-yl)-6-(trifluoromethyl)pyridin-3-yl)methyl)urea]
13 | CC(=O)n1ncc2c(NC(=O)NCc3ccc(C(F)(F)F)nc3N3CCC(C)CC3)cccc21 [Example 49, 1-(1-Acetyl-1H-indazol-4-yl)-3-((2-(4-methylpiperidin-1-yl)-6-(trifluoromethyl)pyridin-3-yl)methyl)urea]
0.1 | CC1CCN(c2nc(C(C)(C)C)ccc2CNC(=O)Nc2cccc3cnccc23)CC1 [Example 76, 1-((6-Tert-butyl-2-(4-methylpiperidin-1-yl)pyridin-3-yl)methyl)-3-(isoquinolin-5-yl)urea]
